Results as given in patent publication US20250127913A1, “BIFUNCTIONAL FOLATE RECEPTOR BINDING COMPOUNDS” (LYCIA THERAPEUTICS, INC., priority 2021, published 2025).
Values belong to the molecule of their own block, whether it stands above or below them.

Legend:
TNFα = TNFα (Homo sapiens (Human), UniProt P01375); assay: TNFα binding assay (time-resolved FRET, biotinylated TNFα); settings: 1 nM biotinylated TNFα, 80 nM probe, 16 hr incubation; read-out: TNF-HTRF-biotin
Protocol: TNFα binding was measured in black 96-well plates using a time-resolved FRET assay using a previously described fluorescence acceptor TNFα probe (Xiao et al J. Med. Chem. 2020). Biotinylated TNFα was purchased from Acro Biosystems. Binding reactions were conducted in 20 mM Hepes (pH 7.5) 10 mM MgCl2 0.015% Tween-20 0.05 mg/ml BSA 2% DMSO with 1 nM TNFα 0.5 nM Streptavidin-Tb and 80 nM probe. Test compounds were resuspended in DMSO and 3-fold serial dilutions were made at 100× final concentrations. Fluorescence was measured using λex=340 nm, λem=490, 520 nm on an SpectraMax M5e plate reader (Molecular Devices) after 16 hr incubation time. Dose responses were conducted in duplicate and normalized to the response with DMSO (high) and 100 nM (R)-3-(1-((3-chloro-7-fluoro-6-(2-(2-hydroxypropan-2-yl)pyrimidin-5-yl)-2-methyl-1,5-naphthyridin-4-yl)amino)ethyl)-4-fluorobenzonitrile (low) on each plate. IC50 values were determined by fitting to 4-parameter curves in GraphPad Prism.

folate receptor beta [1] = biological target: T1, folate receptor beta (Homo sapiens (Human), UniProt P14207); assay: Folate receptor binding assay (fluorescence polarization); settings: 2.5 nM folate receptor beta, 2 nM FR-Cy probe, 2 hr incubation; read-out: FOLR2-FP
Protocol: Folate receptor binding was measured in black 96-well plates using a fluorescence polarization assay. A fluorescent probe consisting of a folate analog linked to Cy5 (FR-Cy) was custom synthesized.
Test compounds were resuspended in DMSO and 3-fold serial dilutions were made from 300-0.015 μM (100× final concentrations). Binding reactions were conducted in 200 μl final volume in 20 mM Hepes (pH 7.5) 250 mM NaCl 0.0150 Tween-20 1% DMSO with 2.5 nM folate receptor beta (Acro Biosystems) and 2 nM probe. Fluorescence polarization was measured using λex=620 nm, λem=688 nm on an Envision plate reader (Perkin Elmer) after 2 hr incubation time. Dose responses were conducted in duplicate and normalized to the response with DMSO (high) and 1 μM folic acid (low) on each plate. IC50 values were determined by fitting to 4-parameter curves in GraphPad Prism.

folate receptor beta [2] = biological target: T1, folate receptor beta; assay: Folate receptor SPR assay (biotinylated folate receptor beta on streptavidin chip); format: binding; settings: for Rmax: biotinylated folate receptor beta on streptavidin chip; for kd / Kd / kon: multi-cycle kinetics, 25° C., 1:1 model; for Kd: read-out: FOLR2Biotin - SPR Kd; for kon: pH 7.5, read-out: ka
Protocol: Folate receptor SPR binding assays were conducted on a Biacore 8K instrument (Cytiva) using biotinylated folate receptor beta (Acro Biosystems). Briefly, folate receptor was immobilized at -550 RU on a streptavidin chip (Cytiva) in 10 mM HEPES pH 7.5, 150 mM NaCl, 0.05% Tween 20. Multi-cycle kinetic studies were conducted with 8 compound concentrations using 2-fold dilutions in 10 mM HEPES pH 7.5, 150 mM NaCl, 0.05% Tween 20, 2% DMSO at 25° C. A flow rate or 75 μl/mmn with an association time of 120 s and a dissociation time of 600 s were used. Surfaces were regenerated with 4 M MgCl2 at 30 μl/min for 30 s. Data were fit to a 1:1 model to determine the reported binding parameters.

[3] = biological target: TNFα and streptavidin immobilized FOL2R (Homo sapiens (Human), UniProt P01375+P14207); assay: Ternary complex SPR assay; format: binding; settings: 10 nM compound, max response normalized to expected response; for TC 150 nM- tagless TNF Normalized: 150 nM untagged TNF; for TC 300 nM- tagless TNF Normalized: 300 nM untagged TNF
Protocol: Folate receptor-TNFα ternary complex SPR assays were conducted on a Biacore 8K instrument (Cytiva) using biotinylated folate receptor beta (Acro Biosystems). Folate receptor was immobilized at -1800 RU on a streptavidin chip (Cytiva) in 10 mM HEPES pH 7.5, 150 mM NaCl, 0.05% Tween 20. Untagged TNF was preincubated with 10 nM compound for 6 hr in 10 mM HEPES pH 7.5, 150 mM NaCl, 0.05 Tween 20, 2% DMSO at 25° C. Samples were then injected over the folate receptor surface at 30 μl/min with an association time of 110 s and a dissociation time of 600 s. Surfaces were regenerated with 4 M MgCl2 at 30 μl/mm for 30 s. The maximum measured response was normalized by comparison to the maximum expected response for each compound.

TNFα and streptavidin immobilized FOL2R, sequence (P14207 17-230): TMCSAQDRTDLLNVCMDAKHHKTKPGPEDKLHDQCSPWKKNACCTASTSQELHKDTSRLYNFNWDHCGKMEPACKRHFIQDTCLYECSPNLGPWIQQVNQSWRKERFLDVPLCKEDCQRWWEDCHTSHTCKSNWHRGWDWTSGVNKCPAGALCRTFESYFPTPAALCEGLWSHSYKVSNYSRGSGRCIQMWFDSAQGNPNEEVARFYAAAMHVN
TNFα and streptavidin immobilized FOL2R, sequence (P01375 77-233): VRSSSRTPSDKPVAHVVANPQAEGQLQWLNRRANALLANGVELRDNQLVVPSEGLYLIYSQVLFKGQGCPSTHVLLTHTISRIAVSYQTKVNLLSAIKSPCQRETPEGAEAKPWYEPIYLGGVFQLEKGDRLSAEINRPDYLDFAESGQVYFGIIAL
TNFα, sequence (P01375 77-233): as above
T1 sequence (P14207 17-255): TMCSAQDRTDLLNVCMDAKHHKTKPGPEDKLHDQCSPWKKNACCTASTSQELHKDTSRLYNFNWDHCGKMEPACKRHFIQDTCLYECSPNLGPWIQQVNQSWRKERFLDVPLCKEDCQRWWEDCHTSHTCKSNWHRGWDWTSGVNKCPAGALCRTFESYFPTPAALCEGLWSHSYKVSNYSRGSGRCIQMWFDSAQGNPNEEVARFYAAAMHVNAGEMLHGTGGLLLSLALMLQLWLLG

Structure (SMILES): Cc1nc2cc(F)c(-c3cnc(N4CCN(C(=O)COCCn5cc(COCCOCCOCCN6CCN(C(=O)CC[C@H](NC(=O)c7ccc(NCc8cnc9nc(N)nc(O)c9n8)cc7)C(=O)O)CC6)nn5)CC4)nc3)nc2c(N[C@H](C)c2cc(C#N)ccc2F)c1Cl [Compound I-95, (S)-2-(4-(((2-amino-4-hydroxypteridin-6-yl)methyl)amino)benzamido)-5-(4-(2-(2-(2-((1-(2-(2-(4-(5-(7-chloro-8-(((R)-1-(5-cyano-2-fluorophenyl)ethyl)amino)-3-fluoro-6-methyl-1,5-naphthyridin-2-yl)pyrimidin-2-yl)piperazin-1-yl)-2-oxoethoxy)ethyl)-1H-1,2,3-triazol-4-yl)methoxy)ethoxy)ethoxy)ethyl)piperazin-1-yl)-5-oxopentanoic acid]
IC50 (TNFα): 26 nM | IC50 (folate receptor beta [1]): 11 nM | Rmax (folate receptor beta [2]): 14.8 RU | kd (folate receptor beta [2]): 0.000337 s⁻¹ | Kd (folate receptor beta [2]): 0.0215 nM | kon (folate receptor beta [2]): 1.56e+07 M⁻¹ s⁻¹ | TC 150 nM- tagless TNF Normalized [3]: 17.3% | TC 300 nM- tagless TNF Normalized [3]: 18.6%

Structure (SMILES): Cc1nc2cc(F)c(-c3cnc(N4CCN(C(=O)COCCOCCOCCOCCOCCOCCn5cc(CC[C@H](NC(=O)c6ccc(N(C)Cc7cnc8nc(N)[nH]c(=O)c8n7)cc6)C(=O)O)nn5)CC4)nc3)nc2c(N[C@H](C)c2cc(C#N)ccc2F)c1Cl [Compound I-86, (S)-2-(4-(((2-amino-4-oxo-3,4-dihydropteridin-6-yl)methyl)(methyl)amino)benzamido)-4-(1-(20-(4-(5-(7-chloro-8-(((R)-1-(5-cyano-2-fluorophenyl)ethyl)amino)-3-fluoro-6-methyl-1,5-naphthyridin-2-yl)pyrimidin-2-yl)piperazin-1-yl)-20-oxo-3,6,9,12,15,18-hexaoxaicosyl)-1H-1,2,3-triazol-4-yl)butanoic acid]
IC50 (TNFα): 17 nM | IC50 (folate receptor beta [1]): 7.7 nM | Rmax (folate receptor beta [2]): 18.1 RU | kd (folate receptor beta [2]): 0.000344 s⁻¹ | Kd (folate receptor beta [2]): 0.023 nM | kon (folate receptor beta [2]): 1.53e+07 M⁻¹ s⁻¹ | TC 150 nM- tagless TNF Normalized [3]: 20.1% | TC 300 nM- tagless TNF Normalized [3]: 22.8%

IC50 (TNFα): 19 nM | IC50 (folate receptor beta [1]): 133 nM | Rmax (folate receptor beta [2]): 14.8 RU | kd (folate receptor beta [2]): 0.000774 s⁻¹ | Kd (folate receptor beta [2]): 0.172 nM | kon (folate receptor beta [2]): 4.49e+06 M⁻¹ s⁻¹ | TC 150 nM- tagless TNF Normalized [3]: 16.7% | TC 300 nM- tagless TNF Normalized [3]: 19.4%
Structure (SMILES): Cc1nc2cc(F)c(-c3cnc(N4CCN(C(=O)COCCn5cc(COCCOCCOCCOCCNC(=O)CC[C@H](NC(=O)c6ccc(SCCc7cc8c(=O)[nH]c(N)nc8[nH]7)cc6)C(=O)O)nn5)CC4)nc3)nc2c(N[C@H](C)c2cc(C#N)ccc2F)c1Cl [Compound I-98, (S)-18-(4-((2-(2-amino-4-oxo-4,7-dihydro-3H-pyrrolo[2,3-d]pyrimidin-6-yl)ethyl)thio)benzamido)-1-(1-(2-(2-(4-(5-(7-chloro-8-(((R)-1-(5-cyano-2-fluorophenyl)ethyl)amino)-3-fluoro-6-methyl-1,5-naphthyridin-2-yl)pyrimidin-2-yl)piperazin-1-yl)-2-oxoethoxy)ethyl)-1H-1,2,3-triazol-4-yl)-15-oxo-2,5,8,11-tetraoxa-14-azanonadecan-19-oic acid]

Structure (SMILES): Cc1nc2cc(F)c(-c3cnc(N4CCN(C(=O)COCCOCCOCCOCCOCCOCCn5cc(CC[C@H](NC(=O)c6ccc(CCc7ccc8nc(N)nc(O)c8c7)cc6)C(=O)O)nn5)CC4)nc3)nc2c(N[C@H](C)c2cc(C#N)ccc2F)c1Cl [Compound I-82, (S)-2-(4-(2-(2-amino-4-hydroxyquinazolin-6-yl)ethyl)benzamido)-4-(1-(20-(4-(5-(7-chloro-8-(((R)-1-(5-cyano-2-fluorophenyl)ethyl)amino)-3-fluoro-6-methyl-1,5-naphthyridin-2-yl)pyrimidin-2-yl)piperazin-1-yl)-20-oxo-3,6,9,12,15,18-hexaoxaicosyl)-1H-1,2,3-triazol-4-yl)butanoic acid]
IC50 (TNFα): 19 nM | IC50 (folate receptor beta [1]): 4.9 nM | Rmax (folate receptor beta [2]): 14.5 RU | kd (folate receptor beta [2]): 0.000591 s⁻¹ | Kd (folate receptor beta [2]): 0.031 nM | kon (folate receptor beta [2]): 1.91e+07 M⁻¹ s⁻¹ | TC 60 nM taggless TNF normalized ([3]; 60 nM untagged TNF): 15.7% | TC 300 nM- tagless TNF Normalized [3]: 24.9%

Structure (SMILES): Cc1nc2cc(F)c(-c3cnc(N4CCN(C(=O)COCCn5cc(CN(CCO)CCOCCOCCOCCNC(=O)CC[C@H](NC(=O)c6ccc(NCc7cnc8nc(N)nc(O)c8n7)cc6)C(=O)O)nn5)CC4)nc3)nc2c(N[C@H](C)c2cc(C#N)ccc2F)c1Cl [Compound I-93, (S)-19-(4-(((2-amino-4-hydroxypteridin-6-yl)methyl)amino)benzamido)-3-((1-(2-(2-(4-(5-(7-chloro-8-(((R)-1-(5-cyano-2-fluorophenyl)ethyl)amino)-3-fluoro-6-methyl-1,5-naphthyridin-2-yl)pyrimidin-2-yl)piperazin-1-yl)-2-oxoethoxy)ethyl)-1H-1,2,3-triazol-4-yl)methyl)-1-hydroxy-16-oxo-6,9,12-trioxa-3,15-diazaicosan-20-oic acid]
IC50 (TNFα): 18 nM | IC50 (folate receptor beta [1]): 6.6 nM | Rmax (folate receptor beta [2]): 17.7 RU | kd (folate receptor beta [2]): 0.000178 s⁻¹ | Kd (folate receptor beta [2]): 0.0109 nM | kon (folate receptor beta [2]): 1.63e+07 M⁻¹ s⁻¹ | TC 150 nM- tagless TNF Normalized [3]: 16.1% | TC 300 nM- tagless TNF Normalized [3]: 18.2%

Structure (SMILES): Cc1nc2cc(F)c(-c3cnc(N4CCN(C(=O)COCCn5cc(CCCN6CCC7(CC6)CCN(C(=O)CC[C@H](NC(=O)c6ccc(NCc8cnc9nc(N)nc(O)c9n8)cc6)C(=O)O)CC7)nn5)CC4)nc3)nc2c(N[C@H](C)c2cc(C#N)ccc2F)c1Cl [Compound I-90, (S)-2-(4-(((2-amino-4-hydroxypteridin-6-yl)methyl)amino)benzamido)-5-(9-(3-(1-(2-(2-(4-(5-(7-chloro-8-(((R)-1-(5-cyano-2-fluorophenyl)ethyl)amino)-3-fluoro-6-methyl-1,5-naphthyridin-2-yl)pyrimidin-2-yl)piperazin-1-yl)-2-oxoethoxy)ethyl)-1H-1,2,3-triazol-4-yl)propyl)-3,9-diazaspiro[5.5]undecan-3-yl)-5-oxopentanoic acid]
IC50 (TNFα): 7.6 nM | IC50 (folate receptor beta [1]): 4.4 nM | Rmax (folate receptor beta [2]): 13.3 RU | kd (folate receptor beta [2]): 0.00013 s⁻¹ | Kd (folate receptor beta [2]): 0.00496 nM | kon (folate receptor beta [2]): 2.62e+07 M⁻¹ s⁻¹ | TC 150 nM- tagless TNF Normalized [3]: 20.4% | TC 300 nM- tagless TNF Normalized [3]: 20.6%

Structure (SMILES): Cc1nc2cc(F)c(-c3cnc(N4CCN(C(=O)COCCn5cc(CN(C)CCOCCOCCOCCNC(=O)CC[C@H](NC(=O)c6ccc(NCc7cnc8nc(N)nc(O)c8n7)cc6)C(=O)O)nn5)CC4)nc3)nc2c(N[C@H](C)c2cc(C#N)ccc2F)c1Cl [Compound I-94, (S)-18-(4-(((2-amino-4-hydroxypteridin-6-yl)methyl)amino)benzamido)-1-(1-(2-(2-(4-(5-(7-chloro-8-(((R)-1-(5-cyano-2-fluorophenyl)ethyl)amino)-3-fluoro-6-methyl-1,5-naphthyridin-2-yl)pyrimidin-2-yl)piperazin-1-yl)-2-oxoethoxy)ethyl)-1H-1,2,3-triazol-4-yl)-2-methyl-15-oxo-5,811-trioxa-2,14-diazanonadecan-19-oic acid]
IC50 (TNFα): 22 nM | IC50 (folate receptor beta [1]): 9.3 nM | Rmax (folate receptor beta [2]): 15.4 RU | kd (folate receptor beta [2]): 0.000169 s⁻¹ | Kd (folate receptor beta [2]): 0.0194 nM | kon (folate receptor beta [2]): 8.72e+06 M⁻¹ s⁻¹ | TC 150 nM- tagless TNF Normalized [3]: 16.3% | TC 300 nM- tagless TNF Normalized [3]: 18.5%
